Reference: publication PMC8151276, “An Integrated Approach toward NanoBRET Tracers for Analysis of GPCR Ligand Engagement” (Molecules, 2021)

Columns and labels:
Assay type in all cases: binding
CHRM1 = target: T1, CHRM1 (Homo sapiens, UniProt P11229); test: NanoBRET screen HiBiT-CHRM1 in HEK293
T1 construct: purchased Promega (in-house HiBiT-GPCR construct library, NanoBRET)
T1 sequence (P11229 1-460): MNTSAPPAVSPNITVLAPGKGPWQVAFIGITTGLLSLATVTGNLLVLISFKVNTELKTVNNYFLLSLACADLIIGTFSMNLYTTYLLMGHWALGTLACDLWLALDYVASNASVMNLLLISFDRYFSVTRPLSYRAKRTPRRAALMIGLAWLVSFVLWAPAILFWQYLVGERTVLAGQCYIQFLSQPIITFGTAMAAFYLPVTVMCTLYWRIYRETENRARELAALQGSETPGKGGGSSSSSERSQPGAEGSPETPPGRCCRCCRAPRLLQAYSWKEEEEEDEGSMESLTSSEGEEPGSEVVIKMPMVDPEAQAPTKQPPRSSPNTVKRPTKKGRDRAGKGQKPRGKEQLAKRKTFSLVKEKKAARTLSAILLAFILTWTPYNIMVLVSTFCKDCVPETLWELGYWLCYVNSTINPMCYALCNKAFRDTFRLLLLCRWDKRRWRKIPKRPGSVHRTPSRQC

CHRM3 = target: T2, CHRM3 (Homo sapiens, UniProt P20309); test: NanoBRET screen HiBiT-CHRM3 in HEK293
T2 construct: purchased Promega (in-house HiBiT-GPCR construct library, NanoBRET)

FZD10 = target: T3, FZD10 (Homo sapiens, UniProt Q9ULW2); test: NanoBRET screen HiBiT-FZD10 in HEK293
T3 construct: purchased Promega (in-house HiBiT-GPCR construct library, NanoBRET)
T3 sequence (Q9ULW2 21-581): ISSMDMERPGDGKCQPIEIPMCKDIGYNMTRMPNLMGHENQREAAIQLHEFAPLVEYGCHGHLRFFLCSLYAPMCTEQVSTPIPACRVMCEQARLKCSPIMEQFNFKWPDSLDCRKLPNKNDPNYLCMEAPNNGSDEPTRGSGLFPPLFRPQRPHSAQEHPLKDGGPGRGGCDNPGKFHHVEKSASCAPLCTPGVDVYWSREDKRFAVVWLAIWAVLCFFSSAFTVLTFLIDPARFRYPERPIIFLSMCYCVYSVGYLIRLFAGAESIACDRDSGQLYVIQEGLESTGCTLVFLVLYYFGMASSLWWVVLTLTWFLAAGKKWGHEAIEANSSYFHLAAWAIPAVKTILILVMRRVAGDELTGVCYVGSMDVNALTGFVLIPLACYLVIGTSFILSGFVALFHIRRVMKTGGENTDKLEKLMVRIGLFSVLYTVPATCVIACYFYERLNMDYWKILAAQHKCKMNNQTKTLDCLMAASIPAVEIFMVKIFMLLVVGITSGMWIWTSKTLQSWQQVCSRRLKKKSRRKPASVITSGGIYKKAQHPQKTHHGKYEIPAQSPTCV
Procedure: (§1) Each tracer candidate was screened across the entire library of HiBiT-GPCR constructs using NanoBRET as the detection modality. As depicted in Figure 4A, the specificity of interactions was evaluated through decrease in BRET due to competitive displacement of a bound tracer by excess parental compound. Each tracer was analyzed for binding to each HiBiT-GPCR fusion in the absence and in the presence of competing parental compound. Briefly, HEK293 cells were transfected with HiBiT-GPCR constructs diluted into promoterless DNA to reduce expression and maximize translocation to the cell surface. Each tracer candidate was then screened at concentrations of 1 μM and 0.1 μM across cells expressing these fusions. Cells were treated for 1.5 h with tracer either alone or in the presence of 20 μM competing parental compound (i.e., control). BRET was measured upon addition of purified LgBiT and subsequent complementation with HiBiT genetically fused to a GPCR. The specificity of interactions was assessed through a decrease in BRET signal due to competitive displacement of the bound tracer. To further gauge the robustness of these interactions, the fold response over the control (i.e., BRETtracer/BRETcontrol) was calculated. We chose a 1.5-fold response, which translates to ≥7-fold signal over noise as the minimal threshold required to score an interaction as positive.
(§2) HiBiT-GPCR DNA constructs were diluted in 10 mM Tris pH 8 to a final concentration of 0.01 μg/μL, arrayed in 96-well plates and stored at −20 °C. For transfection, HEK293 cells were suspended in Opti-MEM (without phenol red) supplemented with 2% fetal bovine serum (Seradigm) and 100 units/mL penicillin–streptomycin (Gibco) at a final concentration of 220,000 cells/mL and dispensed into white 96-well plates at 90 μL/well. Subsequent transfections and screens were carried using an Agilent Bravo Automated Liquid Handling Platform. First, the 96-well HiBiT DNA arrays were diluted 25-fold in Opti-MEM (without serum or phenol red) to a final concentration of 0.0004 μg/μL and 20 μL of the diluted DNAs were transferred into new 96-well plates. Next, promoterless carrier DNA (1 μg/μL) was diluted 25-fold (0.04 μg/μL) and then dispensed into the diluted arrays at 20 μL/well. Following brief mixing, Viafect transfection reagent (Promega) diluted 16-fold into Opti-MEM was dispensed into the plates at 40 μL/well. After mixing by pipetting, plates were incubated for 10 min on the pipetting station deck. The DNA-transfection reagent complexes were then added to plates containing cells. To facilitate the screen, 10 μL of DNA-transfection reagent complexes were added in duplicates to the top 4 and bottom 4 rows, resulting in two identical 48-well arrays per plate. Plates with transfected cells were incubated for 18–20 h at 37 °C/5% CO2. A screen of each tracer across the entire library using two different concentrations requires duplicate plates of transfected cells. Depending on the number of tracers being screened, transfections can be scaled up using the same ratios. The next day, for each tracer, four 20× screening solutions in tracer dilution buffer (Promega) were prepared: two duplicates at final concentration of 20 μM and two duplicates at a final concentration of 2 μM. […] The four resulting solutions were diluted 4-fold in Opti-MEM without serum or phenol red to generate 5× solutions (5 µM and 0.5 µM tracer +/− 100 μM competing compound). To screen the library, a BioTek MultiFlo FX liquid dispenser was used to dispense 22.5 µL of tracer solution to the top 4 rows and 22.5 µL tracer + competing compound solution to the 4 bottom rows. Plates were briefly mixed on an orbital shaker and incubated for 1.5 h at room temperature. […] Plates were briefly mixed on an orbital shaker and incubated for 15 min to allow complementation.

HRH1 = target: T4, HRH1 (Homo sapiens, UniProt P35367); test: NanoBRET screen HiBiT-HRH1 in HEK293
T4 construct: purchased Promega (in-house HiBiT-GPCR construct library, NanoBRET)

MCHR2 = target: T5, MCHR2 (Homo sapiens, UniProt Q969V1); test: NanoBRET screen HiBiT-MCHR2 in HEK293
T5 construct: purchased Promega (in-house HiBiT-GPCR construct library, NanoBRET)
Procedure: as §1, §2

[1] = tracer at 0.1μM, listed as amitriptyline-b-2-NB590

T2 sequence (P20309 whole entry): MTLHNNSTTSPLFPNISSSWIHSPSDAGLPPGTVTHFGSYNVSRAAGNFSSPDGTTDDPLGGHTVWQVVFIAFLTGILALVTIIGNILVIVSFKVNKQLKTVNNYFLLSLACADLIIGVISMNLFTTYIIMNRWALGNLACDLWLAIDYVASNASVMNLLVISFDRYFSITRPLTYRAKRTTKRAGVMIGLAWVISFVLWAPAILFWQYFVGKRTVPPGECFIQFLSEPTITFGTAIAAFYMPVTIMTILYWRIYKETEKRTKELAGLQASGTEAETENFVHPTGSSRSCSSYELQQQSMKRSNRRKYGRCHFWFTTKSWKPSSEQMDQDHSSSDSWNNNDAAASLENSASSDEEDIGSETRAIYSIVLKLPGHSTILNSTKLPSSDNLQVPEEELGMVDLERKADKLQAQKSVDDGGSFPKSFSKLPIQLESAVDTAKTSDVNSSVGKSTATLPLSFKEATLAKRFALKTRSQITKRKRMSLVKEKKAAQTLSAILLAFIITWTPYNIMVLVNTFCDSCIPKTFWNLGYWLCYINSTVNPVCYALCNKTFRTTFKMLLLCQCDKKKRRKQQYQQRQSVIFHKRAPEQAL
T5 sequence (Q969V1 whole entry): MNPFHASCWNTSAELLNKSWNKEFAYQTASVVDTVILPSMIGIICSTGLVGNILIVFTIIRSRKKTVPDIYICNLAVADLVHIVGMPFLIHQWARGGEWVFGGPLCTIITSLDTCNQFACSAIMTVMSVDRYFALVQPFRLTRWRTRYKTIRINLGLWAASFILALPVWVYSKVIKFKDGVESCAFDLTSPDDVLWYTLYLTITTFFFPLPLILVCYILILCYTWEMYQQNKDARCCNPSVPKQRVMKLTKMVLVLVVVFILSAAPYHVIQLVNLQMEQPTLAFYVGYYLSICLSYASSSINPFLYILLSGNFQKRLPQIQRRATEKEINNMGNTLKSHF
T4 sequence (P35367 whole entry): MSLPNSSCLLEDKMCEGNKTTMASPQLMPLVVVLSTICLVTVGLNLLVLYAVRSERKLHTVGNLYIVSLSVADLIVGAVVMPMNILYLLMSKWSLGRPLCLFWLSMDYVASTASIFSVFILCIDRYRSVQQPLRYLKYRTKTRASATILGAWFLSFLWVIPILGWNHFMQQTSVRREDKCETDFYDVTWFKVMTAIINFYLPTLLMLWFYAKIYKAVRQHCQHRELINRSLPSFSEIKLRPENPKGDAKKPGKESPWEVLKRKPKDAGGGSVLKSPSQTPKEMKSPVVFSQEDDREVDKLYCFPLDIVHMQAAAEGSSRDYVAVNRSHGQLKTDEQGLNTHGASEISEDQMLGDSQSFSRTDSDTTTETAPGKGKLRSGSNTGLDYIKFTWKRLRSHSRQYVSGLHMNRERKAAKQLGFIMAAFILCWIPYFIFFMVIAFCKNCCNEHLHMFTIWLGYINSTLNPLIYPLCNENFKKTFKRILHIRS

## CCOC(=O)c1cc(C#N)c(N2CCC(C(=O)NS(=O)(=O)Cc3ccccc3/C=C/C(=O)NCCNC(=O)CCc3ccc4n3[B-](F)(F)[N+]3=C(c5ccc[nH]5)C=CC3=C4)CC2)nc1C [AZD1283-1-NB590]
CHRM1; CHRM1, 0.1μM
  NanoBRET Fold Response: 1.01
CHRM1; CHRM1, 1μM
  NanoBRET Fold Response: 1.04
CHRM3; CHRM3, 0.1μM
  NanoBRET Fold Response: 1.07
CHRM3; CHRM3, 1μM
  NanoBRET Fold Response: 1.09
FZD10; FZD10, 0.1μM
  NanoBRET Fold Response: 1.01
FZD10; FZD10, 1μM
  NanoBRET Fold Response: 1.02
HRH1; HRH1, 0.1μM
  NanoBRET Fold Response: 1.05
HRH1; HRH1, 1μM
  NanoBRET Fold Response: 0.92
MCHR2; MCHR2, 0.1μM
  NanoBRET Fold Response: 1.04
MCHR2; MCHR2, 1μM
  NanoBRET Fold Response: 1.06

## N#CN=C(NCCCOc1cccc(CN2CCCCC2)c1)NCCNC(=O)CCOCCOCCOCCOCCNC(=O)CCc1ccc2n1[B-](F)(F)[N+]1=C(c3ccc[nH]3)C=CC1=C2 [Aminopotentidine-2-NB590]
CHRM1; CHRM1, tracer 0.1μM
  NanoBRET Fold Response: 0.98
CHRM1; CHRM1, tracer 1μM
  NanoBRET Fold Response: 1.35
CHRM3; CHRM3, tracer 0.1μM
  NanoBRET Fold Response: 0.99
CHRM3; CHRM3, tracer 1μM
  NanoBRET Fold Response: 1.04
FZD10; FZD10, tracer 0.1μM
  NanoBRET Fold Response: 0.99
FZD10; FZD10, tracer 1μM
  NanoBRET Fold Response: 0.99
HRH1; HRH1, tracer 0.1μM
  NanoBRET Fold Response: 0.91
HRH1; HRH1, tracer 1μM
  NanoBRET Fold Response: 1.08
MCHR2; MCHR2, tracer 0.1μM
  NanoBRET Fold Response: 0.97
MCHR2; MCHR2, tracer 1μM
  NanoBRET Fold Response: 1.03

## CN(C)CCC=C1c2ccccc2CCc2ccc(C(=O)NCCNC(=O)CCOCCOCCOCCOCCNC(=O)CCc3ccc4n3[B-](F)(F)[N+]3=C(c5ccc[nH]5)C=CC3=C4)cc21 [Amitriptyline-a-2-NB590]
FZD10; tracer at 0.1μM
  NanoBRET Fold Response: 0.97
FZD10; tracer at 1μM
  NanoBRET Fold Response: 1.01
MCHR2; tracer at 0.1μM
  NanoBRET Fold Response: 0.97
MCHR2; tracer at 1μM
  NanoBRET Fold Response: 1.01

## CN(C)CCC=C1c2ccccc2CCc2ccc(C(=O)NCCNC(=O)CCOCCOCCOCCOCCNC(=O)CCc3ccc4n3[B-](F)(F)[N+]3=C(c5ccc[nH]5)C=CC3=C4)cc21 [Amitriptyline-b-2-NB590]
FZD10; [1]
  NanoBRET Fold Response: 0.18
FZD10; tracer at 1μM
  NanoBRET Fold Response: 0.99
MCHR2; [1]
  NanoBRET Fold Response: 0.85
MCHR2; tracer at 1μM, listed as amitriptyline-b-2-NB590
  NanoBRET Fold Response: 0.90

## CN(CCC=C1c2ccccc2CCc2ccccc21)C(=O)CCOCCOCCOCCOCCNC(=O)CCc1ccc2n1[B-](F)(F)[N+]1=C(c3ccc[nH]3)C=CC1=C2 [Amitriptyline-e-2-NB590]
FZD10; tracer at 1μM
  NanoBRET Fold Response: 1.01

## COc1ccc2c(n1)c(CCNC(C)=O)cn2CCNC(=O)CCc1ccc2n1[B-](F)(F)[N+]1=C(c3ccc[nH]3)C=CC1=C2 [Azamelatonin-1-NB590]
CHRM1; 0.1μM tracer
  NanoBRET Fold Response: 1.17
CHRM1; 1μM tracer
  NanoBRET Fold Response: 0.93
CHRM3; 0.1μM tracer
  NanoBRET Fold Response: 1.05
CHRM3; 1μM tracer
  NanoBRET Fold Response: 0.96
FZD10; 0.1μM tracer
  NanoBRET Fold Response: 0.93
FZD10; 1μM tracer
  NanoBRET Fold Response: 0.93
HRH1; 0.1μM tracer
  NanoBRET Fold Response: 1.14
HRH1; 1μM tracer
  NanoBRET Fold Response: 1.14
MCHR2; 0.1μM tracer
  NanoBRET Fold Response: 1.45
MCHR2; 1μM tracer
  NanoBRET Fold Response: 0.86
